Laboratory results as given in EP0197664A2, “2-Aminopyrimidinone derivatives” (SMITH KLINE & FRENCH LABORATORIES LIMITED, priority 1985, dated 1986).

Key:
anaesthetised cats = test: Cardiac stimulant activity in vivo (anaesthetised cats, left ventricular dp/dt max); conditions: Felis catus, read-out: ED50 (dose to increase left ventricular dp/dt max by 50%); anaesthetised cats pretreated with pempidine and propranolol, intravenous
From the text: The dose to increase left ventricular dp/dt max by 50% is given as the EDso.

right ventricle strips = test: Cardiac stimulant activity in vitro (force of contraction of electrically stimulated ventricular strips); assay type: cell-based, Guinea pigs; conditions: Cavia porcellus, read-out: EC50 (50% increase in the force of contraction of the ventricular strips); guinea pig right ventricular strips, 1.0 Hz stimulation, Krebs Henseleit solution at 37°C, cumulative concentration response
Description: The compounds of formula (I) and their pharmaceutically acceptable salts are tested for cardiac stimulant activity following a procedure based on that of S.C. […] Guinea pigs (500-700 g) of either sex are sacrificed and the hearts are quickly removed and transferred to a dissecting dish containing oxygenated bathing fluid. While in the bathing medium, the right ventricle is cut into two strips. The strips are each suspended in a 50 ml bath containing Krebs Henseleit solution at 37°C, and the bath is bubbled with 95% oxygen and 5% carbon dioxide. The ventricular strips are electrically stimulated at a frequency of 1.0 Hz, at double the threshold voltage. A resting tension of 1.0 g is applied to the strips and the tension is kept constant by readjustment during an equilibration period of 60 minutes. The bathing fluid is frequently changed during this period. When a steady base line is obtained, a compound under test is added to the bathing fluid and a cumulative concentration response curve is plotted.

| EC50 (right ventricle strips) | Structure (SMILES) | ED50 (anaesthetised cats) |
| --- | --- | --- |
| – | CC1CC(=O)NN=C1c1ccc(Nc2nc(=O)c3ccccc3[nH]2)cc1 (centres unmarked) [Example 4, 6-[4-(1,4-Dihydro-4-oxo-2-quinazolinyiamino)-phenyl]-5-methyl-4,5-dihydro-3(2H)-pyridazinone] | 0.41 µmol/kg |
| – | Cc1c[nH]c(Nc2ccc(C3=NNC(=O)CC3C)cc2)nc1=O (centres unmarked) [Example 3, 6-[4-(1,4-Dihydro-5-methyl-4-oxo-2-pyrimidinylamino)phenyl]-5-methyl-4,5-dihydro-3-(2H)-pyridazinone] | 3.03 µmol/kg |
| – | CC1CC(=O)NN=C1c1ccc(Nc2nc(=O)cc[nH]2)cc1 (centres unmarked) [Example 1, 6-[4-(1,4-Dihydro-4-oxo-2-pyrimidinylamino)phenyl]-5-methyl-4,5-dihydro-3(2H)-pyridazinone] | 0.06 µmol/kg |
| 15 µM | Nc1cc(-c2ccncc2)c[nH]c1=O [Amrinone, reference compound] | 5.6 µmol/kg |
